{"source": "patent EP4520333A1", "about": "“SYK INHIBITORS FOR USE IN THE TREATMENT OF IMMUNE CHECKPOINT INHIBITION INDUCED ADVERSE EVENTS” (Albert-Ludwigs-Universität Freiburg, priority 2023, dated 2025)", "key": {"B-cell lymphomas": {"system": "B-cell lymphomas", "details": "in vitro; cited from earlier work"}, "mice [1]": {"system": "mice", "experiment": "Novel object recognition test", "type": "in vivo", "description": "(§1) The invention is further described by the following figures. These are not intended to limit the scope of the invention but represent preferred embodiments of aspects of the invention provided for greater illustration of the invention described herein. • Figure 1: Microglia show signs of activation upon anti-PD-1 treatment in the absence of tumor. (A-C) Histology of brain samples immunostained for Iba-1^+ cells from the cortex of mice treated with anti-PD-1 or isotype control on day 22 after treatment. (A) Representative images from each group are shown. Scale bars, 50µm. The scatter plots show the number of Iba-1^+ cells (per mm^2) in cortex (B) and hippocampus (C). The results (mean ± s.e.m.) were combined. The experiment was performed three times. The P-values were calculated using the unpaired student's t-test. (D) Representative images showing Imaris (Bitplane)-based 3D-reconstruction of Iba-1^+ microglia from the cortex of mice treated with anti-PD-1 or isotype control as indicated. Scale bar: 10µm. (E-H) Scatter plots showing Imaris-based automated quantification of microglial morphology from microglia the cortex of mice treated with anti-PD-1 or isotype control on day 22 after treatment. […] The P-values were calculated using the unpaired student's t-test. • Figure 2: Anti-PD-1 treatment causes neurocognitive deficits and increased CSF-1R and MHC-II expression on microglia. (A-B) Representative immunofluorescence images and scatter plot depicting the quantification of the ratio of extravascular versus intravascular FITC-dextran indicative of BBB leakage via extravasation of FITC-dextran in the cortex of either untreated, isotype-treated, or anti-PD-1-treated mice. […] (C-D) The scatter plot (C) and representative histogram (D) show the quantification (fold change of MFI) of CSF-1R (CD115) on microglia (CD45^lo CD11b^+) isolated from the CNS of mice treated with anti-PD-1 or isotype control on day 22. […] The P-values were calculated using the student's t-test (B, C, E, K-M) and paired samples Wilcoxon test (G, I). […] The P-values were calculated using the unpaired student's t-test. […]"}, "mice [2]": {"system": "mice", "experiment": "Grip strength test", "type": "in vivo", "details": "melanoma bearing mice", "description": "(§2) The invention is further described by the following figures. These are not intended to limit the scope of the invention but represent preferred embodiments of aspects of the invention provided for greater illustration of the invention described herein. • Figure 1: Microglia show signs of activation upon anti-PD-1 treatment in the absence of tumor. (A-C) Histology of brain samples immunostained for Iba-1^+ cells from the cortex of mice treated with anti-PD-1 or isotype control on day 22 after treatment. (A) Representative images from each group are shown. Scale bars, 50µm. The scatter plots show the number of Iba-1^+ cells (per mm^2) in cortex (B) and hippocampus (C). The results (mean ± s.e.m.) were combined. […] The P-values were calculated using the unpaired student's t-test. […] (E-H) Scatter plots showing Imaris-based automated quantification of microglial morphology from microglia the cortex of mice treated with anti-PD-1 or isotype control on day 22 after treatment. […] The P-values were calculated using the unpaired student's t-test. • Figure 2: Anti-PD-1 treatment causes neurocognitive deficits and increased CSF-1R and MHC-II expression on microglia. […] (C-D) The scatter plot (C) and representative histogram (D) show the quantification (fold change of MFI) of CSF-1R (CD115) on microglia (CD45^lo CD11b^+) isolated from the CNS of mice treated with anti-PD-1 or isotype control on day 22. […]"}, "[3]": {"system": "cells isolated from BM and spleen", "experiment": "Flow cytometry of peripheral immune cells from BM and spleen of melanoma-bearing mice", "type": "in vivo", "description": "as §1"}, "mice [4]": {"system": "mice", "experiment": "Elevated plus maze test", "type": "in vivo", "details": "melanoma bearing mice, anti-PD-1 plus Syk inhibitor vs anti-PD-1 plus vehicle (Fig. 7L day 17; Fig. 33A)", "description": "as §2"}, "[5]": {"system": "microglia (CD45lo CD11b+)", "experiment": "Flow cytometry of microglia / CD11b+ cells isolated from the CNS of mice", "type": "in vivo", "details": "melanoma bearing mice on CSF-1R inhibitor diet vs control diet (Fig. 6, Fig. 14)", "description": "as §2"}, "lymphoma cells": {"system": "lymphoma cells", "details": "reference (45); cited from earlier work"}}, "data": [{"smiles": "CCS(=O)(=O)N1CCN(c2ccc(Nc3ncc(C(N)=O)c(NC4CC4)n3)cc2)CC1", "note": "[Cerdulatinib]", "values": [{"measurement": "activity against B-cell lymphomas", "setting": "B-cell lymphomas", "result": "in vitro activity"}]}, {"smiles": "COc1cc(Nc2ncc(F)c(Nc3ccc4c(n3)N(COP(=O)(O)O)C(=O)C(C)(C)O4)n2)cc(OC)c1OC", "note": "[Fostamatinib]", "values": [{"measurement": "time spent exploring a novel object with respect to the total time (memory)", "setting": "mice [1]; melanoma bearing mice, anti-PD-1 plus Syk inhibitor vs anti-PD-1 plus vehicle (Fig. 7K day 17; Fig. 33B)", "result": "reproducible"}, {"measurement": "grip strength normalized to body weight", "setting": "mice [2]; anti-PD-1 plus Syk inhibitor or vehicle (Fig. 7M day 17; Fig. 33C)", "result": "reproducible"}, {"measurement": "peripheral myeloid compartment (CD45+, F4/80+ cells in BM and spleen)", "setting": "[3]; anti-PD-1/isotype and second Syk inhibitor/vehicle (Fig. 33D-G)", "result": "No changes"}, {"measurement": "CD3+ T cells in the BM and spleen", "setting": "[3]; anti-PD-1/isotype and second Syk inhibitor/vehicle (Fig. 33H and I)", "result": "expansion"}, {"measurement": "entries into open arms (exploratory)", "setting": "mice [4]", "result": "reproducible"}]}, {"smiles": "COc1ncc(F)cc1CNc1ccc(Cc2c[nH]c3ncc(C)cc23)c(F)n1", "note": "[PLX5622]", "values": [{"measurement": "neurocognitive function in novel object recognition test, anti-PD-1 treated mice", "setting": "mice [1]; melanoma bearing mice treated with anti-PD-1 plus depleting agent or its control, day 23 (Fig. 6B, F, J, M, O)", "result": "improved"}, {"measurement": "neurocognitive function in novel object recognition test, isotype treated mice", "setting": "mice [1]; melanoma bearing mice treated with isotype antibody plus depleting agent or its control, day 23 (Fig. 6A, E)", "result": "did not develop neurocognitive deficits"}, {"measurement": "grip strength normalized to body weight", "setting": "mice [2]; isotype or anti-PD-1 plus depleting agent or its control, day 23 (Fig. 6C, D, G, H)", "result": "intact"}, {"measurement": "frequencies of CD45, CD11b, Ly6C and CD11c populations in the BM and spleen", "setting": "[3]; CSF-1R inhibitor diet day -7 to day 23", "result": "did not alter"}, {"measurement": "CSF-1R positive cells (CD11b+ and CD11b+CD45lo cells in the CNS)", "setting": "[5]", "result": "depletion"}]}, {"smiles": "Cn1cc(-c2nc(N[C@@H]3CCCC[C@@H]3N)c(F)c3c2C(=O)NC3)cn1", "note": "[TAK-659]", "values": [{"measurement": "pro-survival, proliferative, chemoresistant, and activation effects promoted by the microenvironment", "setting": "lymphoma cells", "result": "impair"}]}]}
